Source: PMC1431542, “Cyclic nucleotide specific phosphodiesterases of Leishmania major” (BMC Microbiology, 2006)

Tests used:
LmjPDEB1 = molecular target: T1, LmjPDEB1 (Leishmania major, UniProt Q6S996); assay: 3H-cAMP phosphodiesterase assay in yeast lysate; format: cell-based
T1 construct: gene PDEB1; full-length, hemagglutinin-tagged
T1 sequence (Q6S996 1-940): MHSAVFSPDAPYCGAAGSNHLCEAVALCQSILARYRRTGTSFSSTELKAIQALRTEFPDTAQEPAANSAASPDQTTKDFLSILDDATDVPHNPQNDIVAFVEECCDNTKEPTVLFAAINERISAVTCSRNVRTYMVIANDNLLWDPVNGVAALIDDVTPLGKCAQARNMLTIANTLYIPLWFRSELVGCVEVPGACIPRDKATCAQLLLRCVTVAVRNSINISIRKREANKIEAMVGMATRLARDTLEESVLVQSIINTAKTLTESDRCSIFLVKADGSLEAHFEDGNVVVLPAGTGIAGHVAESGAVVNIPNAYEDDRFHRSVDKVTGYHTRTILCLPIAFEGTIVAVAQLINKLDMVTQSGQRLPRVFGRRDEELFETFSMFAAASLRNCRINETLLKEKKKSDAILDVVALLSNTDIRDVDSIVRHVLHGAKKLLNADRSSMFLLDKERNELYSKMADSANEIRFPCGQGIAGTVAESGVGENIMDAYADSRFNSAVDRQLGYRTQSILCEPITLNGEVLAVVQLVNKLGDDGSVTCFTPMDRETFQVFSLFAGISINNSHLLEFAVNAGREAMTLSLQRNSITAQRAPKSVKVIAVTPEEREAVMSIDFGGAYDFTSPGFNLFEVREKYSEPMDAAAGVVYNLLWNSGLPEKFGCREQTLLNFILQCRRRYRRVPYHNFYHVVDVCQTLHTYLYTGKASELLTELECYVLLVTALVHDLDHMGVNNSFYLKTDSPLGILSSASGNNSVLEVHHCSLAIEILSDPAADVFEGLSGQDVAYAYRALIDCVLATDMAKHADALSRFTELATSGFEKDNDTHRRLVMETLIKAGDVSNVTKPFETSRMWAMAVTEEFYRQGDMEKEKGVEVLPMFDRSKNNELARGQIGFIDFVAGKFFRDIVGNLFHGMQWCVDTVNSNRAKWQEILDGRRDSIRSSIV

LmjPDEB2 = molecular target: T2, LmjPDEB2 (Leishmania major, UniProt Q6S997); assay: biochemical
T2 construct: gene PDEB2; full-length, hemagglutinin-tagged
T2 sequence (Q6S997 entry or part of it): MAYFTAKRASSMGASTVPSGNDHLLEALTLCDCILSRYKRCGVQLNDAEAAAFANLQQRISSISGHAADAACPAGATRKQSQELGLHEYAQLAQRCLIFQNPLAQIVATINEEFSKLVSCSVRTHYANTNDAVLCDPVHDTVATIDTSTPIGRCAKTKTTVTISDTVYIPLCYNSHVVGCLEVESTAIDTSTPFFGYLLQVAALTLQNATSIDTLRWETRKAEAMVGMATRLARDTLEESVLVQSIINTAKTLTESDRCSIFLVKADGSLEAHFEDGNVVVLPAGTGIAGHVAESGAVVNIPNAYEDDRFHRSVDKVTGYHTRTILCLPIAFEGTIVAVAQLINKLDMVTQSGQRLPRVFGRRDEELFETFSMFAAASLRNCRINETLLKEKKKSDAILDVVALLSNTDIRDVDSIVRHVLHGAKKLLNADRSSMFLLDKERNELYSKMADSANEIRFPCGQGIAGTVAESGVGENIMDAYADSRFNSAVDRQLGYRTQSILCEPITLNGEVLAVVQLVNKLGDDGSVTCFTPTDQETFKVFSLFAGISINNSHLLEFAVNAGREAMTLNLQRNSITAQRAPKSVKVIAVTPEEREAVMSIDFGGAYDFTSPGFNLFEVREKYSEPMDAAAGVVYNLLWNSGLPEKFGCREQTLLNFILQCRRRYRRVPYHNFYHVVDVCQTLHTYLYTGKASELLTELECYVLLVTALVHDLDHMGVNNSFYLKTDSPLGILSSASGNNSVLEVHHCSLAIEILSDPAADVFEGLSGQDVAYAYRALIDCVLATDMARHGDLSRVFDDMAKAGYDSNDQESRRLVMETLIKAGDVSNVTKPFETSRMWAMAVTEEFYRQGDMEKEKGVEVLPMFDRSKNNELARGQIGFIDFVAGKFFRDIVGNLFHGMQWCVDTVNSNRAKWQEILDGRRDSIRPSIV

Structure (SMILES) | 3H-cAMP phosphodiesterase assay in yeast lysate (LmjPDEB1) | IC50 (LmjPDEB2) [µM]
CCOC(=O)c1cnc2c(cnn2CC)c1NN=C(C)C [compound 3, etazolate] | Only dipyridamole, trequinsin and etazolate exhibited at least a moderate potency. | 
OCCN(CCO)c1nc(N2CCCCC2)c2nc(N(CCO)CCO)nc(N3CCCCC3)c2n1 [compound 4, dipyridamole] | Only dipyridamole, trequinsin and etazolate exhibited at least a moderate potency. | 29
COc1cc2c(cc1OC)-c1c/c(=N\c3c(C)cc(C)cc3C)n(C)c(=O)n1CC2 [compound 9, trequinsin] | Only dipyridamole, trequinsin and etazolate exhibited at least a moderate potency. | 96
